Assay results published in ChEMBL document CHEMBL5442219.

Tests used:
Conditions in all cases: Compound concentration 10 µM
[1] = target: Kappa-type opioid receptor (Homo sapiens) (UniProt P41145)
[2] = target: T1, 5-hydroxytryptamine receptor 3A (Homo sapiens) (UniProt P46098)
T1 sequence (whole entry): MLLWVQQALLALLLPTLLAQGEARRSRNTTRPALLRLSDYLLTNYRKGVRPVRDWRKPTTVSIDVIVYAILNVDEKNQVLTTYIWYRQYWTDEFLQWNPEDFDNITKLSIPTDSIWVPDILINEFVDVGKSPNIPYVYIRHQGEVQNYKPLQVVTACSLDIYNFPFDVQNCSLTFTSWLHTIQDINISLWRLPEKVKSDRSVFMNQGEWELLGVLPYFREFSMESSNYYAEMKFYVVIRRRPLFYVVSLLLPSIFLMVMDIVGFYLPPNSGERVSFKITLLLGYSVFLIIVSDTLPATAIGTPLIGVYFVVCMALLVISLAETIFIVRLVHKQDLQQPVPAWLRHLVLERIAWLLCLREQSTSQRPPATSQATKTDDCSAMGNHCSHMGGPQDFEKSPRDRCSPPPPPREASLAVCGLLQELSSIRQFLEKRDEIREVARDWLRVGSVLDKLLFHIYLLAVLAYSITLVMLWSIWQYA

[3] = target: Sodium-dependent noradrenaline transporter (Homo sapiens) (UniProt P23975)
Sodium-dependent noradrenaline transporter (Homo sapiens), sequence (P23975 whole entry): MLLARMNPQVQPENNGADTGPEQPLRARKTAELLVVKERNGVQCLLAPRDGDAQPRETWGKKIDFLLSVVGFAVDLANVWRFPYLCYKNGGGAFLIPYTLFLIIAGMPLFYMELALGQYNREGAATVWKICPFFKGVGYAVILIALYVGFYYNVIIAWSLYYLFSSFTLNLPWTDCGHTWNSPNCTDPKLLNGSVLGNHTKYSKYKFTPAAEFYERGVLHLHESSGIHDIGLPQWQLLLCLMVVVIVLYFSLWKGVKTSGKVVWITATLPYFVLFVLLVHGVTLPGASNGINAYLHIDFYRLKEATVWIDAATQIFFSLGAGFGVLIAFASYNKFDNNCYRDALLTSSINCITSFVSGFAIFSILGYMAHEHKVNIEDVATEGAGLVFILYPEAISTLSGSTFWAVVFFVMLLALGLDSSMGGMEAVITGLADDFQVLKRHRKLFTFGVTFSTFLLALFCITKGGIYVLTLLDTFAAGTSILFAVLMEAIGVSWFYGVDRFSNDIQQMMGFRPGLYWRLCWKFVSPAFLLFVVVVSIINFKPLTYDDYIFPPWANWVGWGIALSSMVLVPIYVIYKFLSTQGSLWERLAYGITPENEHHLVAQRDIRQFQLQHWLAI

[4] = target: 5-hydroxytryptamine receptor 1D (Homo sapiens) (UniProt P28221)
5-hydroxytryptamine receptor 1D (Homo sapiens), sequence (P28221 whole entry): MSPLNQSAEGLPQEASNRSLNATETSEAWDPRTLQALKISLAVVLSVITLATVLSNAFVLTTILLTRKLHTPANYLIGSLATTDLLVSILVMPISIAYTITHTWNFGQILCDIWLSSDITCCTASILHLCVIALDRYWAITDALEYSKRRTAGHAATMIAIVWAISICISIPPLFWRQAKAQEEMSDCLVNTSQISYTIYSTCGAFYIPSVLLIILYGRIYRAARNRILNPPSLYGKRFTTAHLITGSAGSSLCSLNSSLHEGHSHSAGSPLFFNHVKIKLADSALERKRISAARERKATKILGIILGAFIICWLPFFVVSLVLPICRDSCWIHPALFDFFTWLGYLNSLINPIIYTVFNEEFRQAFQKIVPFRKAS

[5] = target: T2, Alpha-1B adrenergic receptor (Homo sapiens) (UniProt P35368)
T2 sequence (whole entry): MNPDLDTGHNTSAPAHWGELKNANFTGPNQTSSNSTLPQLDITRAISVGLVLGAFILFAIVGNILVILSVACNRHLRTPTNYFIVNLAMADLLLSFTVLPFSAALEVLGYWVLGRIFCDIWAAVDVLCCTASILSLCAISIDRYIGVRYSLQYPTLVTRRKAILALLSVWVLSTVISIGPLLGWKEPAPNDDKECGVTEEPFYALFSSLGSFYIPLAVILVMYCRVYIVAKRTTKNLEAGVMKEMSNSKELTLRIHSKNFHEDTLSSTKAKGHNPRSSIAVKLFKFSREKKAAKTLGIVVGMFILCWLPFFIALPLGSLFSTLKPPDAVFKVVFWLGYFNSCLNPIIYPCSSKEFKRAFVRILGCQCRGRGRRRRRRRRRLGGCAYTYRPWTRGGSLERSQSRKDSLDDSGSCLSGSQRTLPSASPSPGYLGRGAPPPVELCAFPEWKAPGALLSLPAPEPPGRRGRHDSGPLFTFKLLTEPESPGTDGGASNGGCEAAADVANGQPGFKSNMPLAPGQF

[6] = target: T3, 5-hydroxytryptamine receptor 2C (Homo sapiens) (UniProt P28335)
T3 sequence (whole entry): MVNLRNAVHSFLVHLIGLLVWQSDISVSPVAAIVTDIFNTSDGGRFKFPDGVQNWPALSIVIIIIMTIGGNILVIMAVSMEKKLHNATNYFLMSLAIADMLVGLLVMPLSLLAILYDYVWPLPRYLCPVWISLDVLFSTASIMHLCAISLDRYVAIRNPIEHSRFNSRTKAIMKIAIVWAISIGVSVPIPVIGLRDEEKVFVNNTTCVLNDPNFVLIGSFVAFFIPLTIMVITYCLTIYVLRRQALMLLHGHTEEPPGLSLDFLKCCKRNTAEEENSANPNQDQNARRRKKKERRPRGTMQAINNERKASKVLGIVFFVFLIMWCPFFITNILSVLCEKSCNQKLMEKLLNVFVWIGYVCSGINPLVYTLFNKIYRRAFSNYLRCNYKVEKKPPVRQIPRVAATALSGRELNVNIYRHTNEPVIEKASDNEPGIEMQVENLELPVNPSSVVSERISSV

[7] = target: Beta-1 adrenergic receptor (Homo sapiens) (UniProt P08588)
Beta-1 adrenergic receptor (Homo sapiens), sequence (P08588 whole entry, looked up): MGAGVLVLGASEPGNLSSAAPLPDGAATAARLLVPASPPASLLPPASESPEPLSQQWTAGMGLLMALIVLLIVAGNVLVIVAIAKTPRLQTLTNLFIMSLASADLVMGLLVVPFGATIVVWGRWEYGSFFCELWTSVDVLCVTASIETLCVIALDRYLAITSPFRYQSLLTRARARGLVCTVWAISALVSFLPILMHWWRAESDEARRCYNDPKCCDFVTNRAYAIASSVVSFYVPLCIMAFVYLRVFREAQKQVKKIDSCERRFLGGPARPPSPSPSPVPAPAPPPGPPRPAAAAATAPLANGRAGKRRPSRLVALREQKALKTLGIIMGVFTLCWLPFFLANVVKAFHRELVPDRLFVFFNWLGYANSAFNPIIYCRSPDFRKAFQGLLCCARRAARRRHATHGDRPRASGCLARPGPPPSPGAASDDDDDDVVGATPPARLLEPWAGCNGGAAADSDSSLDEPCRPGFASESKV

[8] = target: 5-hydroxytryptamine receptor 6 (Homo sapiens) (UniProt P50406)
5-hydroxytryptamine receptor 6 (Homo sapiens), sequence (P50406 whole entry): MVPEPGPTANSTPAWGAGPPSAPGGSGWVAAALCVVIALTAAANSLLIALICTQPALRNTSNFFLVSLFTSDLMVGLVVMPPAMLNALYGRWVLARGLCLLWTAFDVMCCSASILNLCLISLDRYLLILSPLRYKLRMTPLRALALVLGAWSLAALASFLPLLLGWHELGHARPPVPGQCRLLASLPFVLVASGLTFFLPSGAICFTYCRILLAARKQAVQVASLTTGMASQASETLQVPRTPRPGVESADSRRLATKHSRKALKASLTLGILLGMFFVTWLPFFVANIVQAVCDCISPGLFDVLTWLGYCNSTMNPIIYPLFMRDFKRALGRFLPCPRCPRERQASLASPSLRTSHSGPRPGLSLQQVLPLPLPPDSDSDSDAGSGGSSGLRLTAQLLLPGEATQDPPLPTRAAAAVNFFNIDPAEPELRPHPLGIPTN

[9] = target: Histamine H4 receptor (Homo sapiens) (UniProt Q9H3N8)
Histamine H4 receptor (Homo sapiens), sequence (Q9H3N8 whole entry): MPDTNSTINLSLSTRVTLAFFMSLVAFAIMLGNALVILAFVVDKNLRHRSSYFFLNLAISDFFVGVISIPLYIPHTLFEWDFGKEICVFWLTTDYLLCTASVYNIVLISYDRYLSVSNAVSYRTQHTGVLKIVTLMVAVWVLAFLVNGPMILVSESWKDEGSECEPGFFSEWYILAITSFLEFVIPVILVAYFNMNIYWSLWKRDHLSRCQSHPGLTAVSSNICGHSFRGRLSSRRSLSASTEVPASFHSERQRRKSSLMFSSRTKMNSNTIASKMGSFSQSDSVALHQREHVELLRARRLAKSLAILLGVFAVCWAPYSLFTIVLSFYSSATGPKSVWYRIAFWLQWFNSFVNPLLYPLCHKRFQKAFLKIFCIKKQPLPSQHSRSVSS

[10] = target: D(1A) dopamine receptor (Homo sapiens) (UniProt P21728)
D(1A) dopamine receptor (Homo sapiens), sequence (P21728 whole entry): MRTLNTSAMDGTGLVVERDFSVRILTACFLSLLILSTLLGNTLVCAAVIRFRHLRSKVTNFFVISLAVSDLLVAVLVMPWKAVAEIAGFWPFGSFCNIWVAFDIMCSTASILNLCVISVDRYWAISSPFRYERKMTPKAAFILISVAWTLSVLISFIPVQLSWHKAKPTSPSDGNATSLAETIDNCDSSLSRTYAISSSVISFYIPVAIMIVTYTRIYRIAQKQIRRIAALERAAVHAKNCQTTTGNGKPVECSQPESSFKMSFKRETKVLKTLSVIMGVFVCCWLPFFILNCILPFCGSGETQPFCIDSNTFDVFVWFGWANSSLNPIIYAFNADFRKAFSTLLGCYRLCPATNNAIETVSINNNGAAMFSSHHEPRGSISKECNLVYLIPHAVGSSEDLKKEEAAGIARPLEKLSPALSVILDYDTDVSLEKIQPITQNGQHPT

[11] = target: T4, D(4) dopamine receptor (Homo sapiens) (UniProt P21917)
T4 sequence (whole entry): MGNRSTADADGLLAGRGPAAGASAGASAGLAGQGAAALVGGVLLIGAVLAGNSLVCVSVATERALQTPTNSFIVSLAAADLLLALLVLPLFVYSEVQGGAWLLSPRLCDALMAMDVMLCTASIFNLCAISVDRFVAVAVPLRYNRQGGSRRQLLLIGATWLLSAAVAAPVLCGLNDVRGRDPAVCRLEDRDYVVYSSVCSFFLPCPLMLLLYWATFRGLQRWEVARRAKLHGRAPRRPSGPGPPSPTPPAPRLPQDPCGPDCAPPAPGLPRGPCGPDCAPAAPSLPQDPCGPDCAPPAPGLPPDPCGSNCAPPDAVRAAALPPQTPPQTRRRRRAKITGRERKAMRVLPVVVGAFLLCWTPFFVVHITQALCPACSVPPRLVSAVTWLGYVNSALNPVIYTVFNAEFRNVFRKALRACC

[12] = target: 5-hydroxytryptamine receptor 2B (Homo sapiens) (UniProt P41595)
5-hydroxytryptamine receptor 2B (Homo sapiens), sequence (P41595 whole entry): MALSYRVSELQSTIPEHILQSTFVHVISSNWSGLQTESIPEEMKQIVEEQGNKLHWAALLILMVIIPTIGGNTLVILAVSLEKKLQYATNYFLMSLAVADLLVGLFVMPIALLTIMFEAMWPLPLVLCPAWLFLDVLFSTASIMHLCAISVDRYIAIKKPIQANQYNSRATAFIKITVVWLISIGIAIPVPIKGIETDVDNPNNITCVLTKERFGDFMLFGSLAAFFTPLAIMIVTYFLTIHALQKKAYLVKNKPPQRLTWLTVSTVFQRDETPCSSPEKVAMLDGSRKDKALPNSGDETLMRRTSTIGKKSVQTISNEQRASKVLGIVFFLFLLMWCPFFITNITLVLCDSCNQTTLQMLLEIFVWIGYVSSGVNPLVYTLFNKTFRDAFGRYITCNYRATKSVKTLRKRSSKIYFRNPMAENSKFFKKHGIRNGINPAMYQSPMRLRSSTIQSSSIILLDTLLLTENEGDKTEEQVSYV

[13] = target: T5, Alpha-2A adrenergic receptor (Homo sapiens) (UniProt P08913)
T5 sequence (whole entry): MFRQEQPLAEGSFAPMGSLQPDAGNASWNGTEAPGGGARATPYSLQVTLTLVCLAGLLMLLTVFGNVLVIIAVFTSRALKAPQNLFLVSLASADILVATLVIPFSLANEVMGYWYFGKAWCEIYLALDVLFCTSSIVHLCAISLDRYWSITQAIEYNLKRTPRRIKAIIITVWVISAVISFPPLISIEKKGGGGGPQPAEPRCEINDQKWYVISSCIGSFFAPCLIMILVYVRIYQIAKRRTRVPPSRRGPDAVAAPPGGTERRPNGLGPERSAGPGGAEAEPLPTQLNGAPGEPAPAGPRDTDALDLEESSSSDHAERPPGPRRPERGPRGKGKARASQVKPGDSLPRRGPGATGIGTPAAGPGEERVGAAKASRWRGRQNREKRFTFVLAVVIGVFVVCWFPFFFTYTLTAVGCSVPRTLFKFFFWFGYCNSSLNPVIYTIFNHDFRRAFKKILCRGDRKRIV

[14] = target: Muscarinic acetylcholine receptor M3 (Homo sapiens) (UniProt P20309)
Muscarinic acetylcholine receptor M3 (Homo sapiens), sequence (P20309 whole entry, looked up): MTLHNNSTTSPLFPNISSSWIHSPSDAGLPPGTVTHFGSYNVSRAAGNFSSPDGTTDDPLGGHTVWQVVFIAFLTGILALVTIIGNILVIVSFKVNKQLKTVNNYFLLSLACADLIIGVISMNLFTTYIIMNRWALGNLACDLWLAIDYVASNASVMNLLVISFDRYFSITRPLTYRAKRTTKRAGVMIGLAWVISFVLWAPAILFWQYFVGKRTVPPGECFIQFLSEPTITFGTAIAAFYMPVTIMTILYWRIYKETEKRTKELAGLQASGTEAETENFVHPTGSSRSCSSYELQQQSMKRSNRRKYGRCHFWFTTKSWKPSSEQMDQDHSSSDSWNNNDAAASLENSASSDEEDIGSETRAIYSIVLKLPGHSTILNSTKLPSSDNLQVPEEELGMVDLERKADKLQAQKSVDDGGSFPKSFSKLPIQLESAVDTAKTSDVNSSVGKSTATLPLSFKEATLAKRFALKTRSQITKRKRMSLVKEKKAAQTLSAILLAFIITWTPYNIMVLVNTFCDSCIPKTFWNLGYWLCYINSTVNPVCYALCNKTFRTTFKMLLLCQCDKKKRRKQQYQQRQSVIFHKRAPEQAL

Kappa-type opioid receptor (Homo sapiens), sequence (P41145 whole entry): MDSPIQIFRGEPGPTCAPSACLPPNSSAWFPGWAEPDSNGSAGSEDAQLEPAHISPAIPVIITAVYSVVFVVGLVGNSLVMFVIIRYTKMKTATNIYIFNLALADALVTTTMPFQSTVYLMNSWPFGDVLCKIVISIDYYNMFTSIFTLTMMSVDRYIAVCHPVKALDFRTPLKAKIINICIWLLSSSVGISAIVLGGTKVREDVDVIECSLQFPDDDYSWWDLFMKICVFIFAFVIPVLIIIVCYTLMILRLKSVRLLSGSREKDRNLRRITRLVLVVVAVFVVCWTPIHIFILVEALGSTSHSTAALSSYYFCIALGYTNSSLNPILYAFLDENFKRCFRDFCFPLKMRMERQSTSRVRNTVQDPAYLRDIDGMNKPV

Compound | inhibition [1] [%] | inhibition [2] [%] | inhibition [3] [%] | inhibition [4] [%] | inhibition [5] [%] | inhibition [6] [%] | inhibition [7] [%] | inhibition [8] [%] | inhibition [9] [%] | inhibition [10] [%] | inhibition [11] [%] | inhibition [12] [%] | inhibition [13] [%] | inhibition [14] [%]
N#Cc1c[nH]c2c(C(=O)N3CCN(CCc4ccc(F)cc4)CC3)cccc12 | 7.51 | -8.41 | 71.6 | 61.7 | 36.8 | 58.7 | 35.6 | 37.8 | -2.67 | 27.9 | 81.9 | 57.1 | -0.21 | 
Cc1nc(C#Cc2ccnc(Cl)c2)c(C)n1-c1ccc(OC(F)(F)F)cc1 | 5.17 | -5.17 | 1.45 | 48.9 |  | 1.86 | 29.4 | -0.41 | -9.98 |  | -0.11 | 19.6 | 23.9 | -6.52
COc1ccc(CNC(=O)c2cc(-c3cncc(Cl)c3)cnc2-c2ccccn2)nc1OC | 23.7 |  | 39 | -5.62 | 0.01 |  | 30.3 | 14.4 | 5.15 |  | -1.86 | -6.96 |  | -0.37
O=C1N/C(=N/c2ccccc2F)S/C1=C\c1ccc(C(=O)O)cc1 |  | -3.21 | 9.3 | 19 |  |  | 9.47 | 24.9 | -4.83 |  | 79.2 | -3.68 |  | -5.5
Cc1nc(-c2ccc(C(F)(F)F)cc2)sc1COc1ccc([C@H](CC(=O)O)c2ccon2)cc1 | 6.61 |  | 14.3 | 8.11 | 69 | -6.07 | 24.6 | 20.3 | -1.65 |  |  | 0.53 |  | 2.18
CN1C[C@H](C(=O)N[C@]2(C)O[C@@]3(O)[C@@H]4CCCN4C(=O)[C@H](Cc4ccccc4)N3C2=O)C[C@@H]2c3cccc4[nH]cc(c34)C[C@H]21 | 15.5 | 1.05 | 21.2 | 98.8 | 93.8 | 103 | 17.8 | 97.4 | 3.01 | 36.3 | 100 | 82.8 | 99.6 | 
Cc1cc(C)cc(-c2cnc3cc(Cl)c(-c4cccc(O)c4)cc3c2OCCCN)c1 | 60.7 | 43.9 | 59.5 | 91.8 | 81.8 | 79.8 | 19.6 | 59 | 68.2 |  | 32.1 | 88.6 | 64.9 | 59.2
FC(F)(F)c1cccc(-c2noc(-c3cc(-c4ccccc4)c(C(F)(F)F)s3)n2)c1 | 46.5 | 0.39 |  | -9.1 |  | 1.03 | -3.82 | -0.25 |  |  | -0.65 | 10.1 | -2.79 | -5.11
C[N+]1(C)[C@@H]2C[C@@H](OC(=O)C(O)(c3cccs3)c3cccs3)C[C@H]1[C@@H]1O[C@@H]12 | -0.32 | 14.3 | -2.62 | 32.9 | -7.35 | -6.52 | 7.61 | -5.82 | -8.1 |  | 20 | 11.5 | 6.5 | 99.2
CN[C@@H]1CCc2[nH]c3ccc(C(N)=O)cc3c2C1 | 5.76 | 24.7 | -1.01 | 72.3 | 93.5 | 18.2 | 1.5 | 24.2 | 2.79 |  | 64.7 | 6.12 | 31 | 15.7
N[C@H](C(=O)O)c1ccc(C(=O)O)c(C(=O)O)c1 | 4.93 | 1.09 | 54.5 | 19.2 | -0.2 | 13.4 | -5.64 | 4.51 | 15 |  | -8.24 |  |  | 4.31
c1cc(CN2CCCNCCNCCCNCC2)ccc1CN1CCCNCCNCCCNCC1 | 13.8 | 21.9 | 33.4 | 1.3 | 42.2 |  | 34.9 |  | 11.2 |  |  |  | 7.87 | -4.94
CN1CCN(c2ccc(Nc3c4ccccc4nc4ccccc34)cc2)CC1 | 38.7 | 32 | 84.7 | 54.3 | 53.5 | 16.7 | 0.45 | 13.8 | 15.5 |  | 13.3 | 36.1 | 70.5 | 43.4
O=C(O)Cn1c(C(=O)Nc2nc(-c3ccccc3Cl)cs2)cc2ccccc21 | 2.51 |  |  | 38.3 | -9.67 | 12.4 | 30.9 |  | 13.6 | -2.06 | -9.74 | 0.94 | 8.83 | 0.53
